Data taken from US8415469B2, “Compounds and methods for kinase modulation, and indications therefor” (Plexxikon Inc., priority 2005, dated 2013).

Key:
Assay type in all cases: biochemical
Zap70 = target: T1, Zap70 (Homo sapiens, UniProt P43403); test: AlphaScreen kinase assay, Zap70; conditions: read-out: IC50, activity toward kinase Zap70
T1 construct: P1868.pFastBac1 ZAP70 D327-G606 HIS, WT; His7 (HHHHHHH) (C); made in house
T1 sequence (P43403 with tags, fused parts or gaps): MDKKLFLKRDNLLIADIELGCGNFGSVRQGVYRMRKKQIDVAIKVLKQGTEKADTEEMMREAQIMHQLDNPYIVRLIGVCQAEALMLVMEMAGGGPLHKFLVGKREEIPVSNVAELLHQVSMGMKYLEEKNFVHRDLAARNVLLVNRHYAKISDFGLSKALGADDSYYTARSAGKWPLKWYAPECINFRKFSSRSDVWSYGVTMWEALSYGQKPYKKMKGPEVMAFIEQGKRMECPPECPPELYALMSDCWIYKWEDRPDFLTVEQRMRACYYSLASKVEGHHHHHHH
Excerpt: AlphaScreen assay was used to screen additional kinases. The assay is similarly dependent on the phosphorylation of a peptide substrate. In this assay, an antibody that recognizes phosphorylated substrate is bound to an acceptor bead. The peptide substrate is attached to biotin, which binds to a donor head that contains streptavidin. Thus phosphorylated substrate is bound by antibody and streptavidin, bringing the donor and acceptor heads into close proximity when kinase is not inhibited. The donor produces singlet oxygen which results in emission from the acceptor when they are in close proximity. Conversely, when kinase is inhibited, the donor and acceptor beads are not associated and the emission from the acceptor is reduced.
AlphaScreen assays were done using compounds dissolved in DMSO to a concentration of 20 mM. The compounds were diluted accordingly to the desired final concentrations in each sample well, using 1:3 serial dilution for a total of 8 concentration points.

Ret = target: T2, Ret (Homo sapiens, UniProt P07949); test: AlphaScreen kinase assay, Ret; conditions: read-out: IC50, activity toward kinase Ret
T2 construct: P1378.pET-SF BI-PTP RET H661-R1012 HIS; made in house
T2 sequence (P07949 with tags, fused parts or gaps): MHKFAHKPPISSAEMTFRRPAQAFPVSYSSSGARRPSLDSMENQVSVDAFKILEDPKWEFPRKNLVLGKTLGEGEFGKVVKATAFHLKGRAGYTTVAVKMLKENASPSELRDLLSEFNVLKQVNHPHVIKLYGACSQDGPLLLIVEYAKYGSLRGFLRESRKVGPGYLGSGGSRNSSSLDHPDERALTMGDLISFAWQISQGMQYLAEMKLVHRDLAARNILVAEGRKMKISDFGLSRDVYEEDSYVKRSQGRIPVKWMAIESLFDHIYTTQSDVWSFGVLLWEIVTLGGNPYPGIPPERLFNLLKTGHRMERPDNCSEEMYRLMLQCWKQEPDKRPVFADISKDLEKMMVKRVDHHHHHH

B-Raf V600E = target: T3, B-Raf V600E (Homo sapiens, UniProt P15056, V600E); test: AlphaScreen kinase assay, B-Raf V600E; conditions: read-out: IC50, activity toward kinase B-Raf V600E
T3 construct: P4254. pFastBacBD-CDC37 BRAF D437-K722-X, V600E; His6 with pFastBac HT leader (TEV site) (N); made in house; host or cells: Sf9 (baculovirus; chaperone CDC37 co-expressed)
T3 sequence (P15056 with tags, fused parts or gaps V600E): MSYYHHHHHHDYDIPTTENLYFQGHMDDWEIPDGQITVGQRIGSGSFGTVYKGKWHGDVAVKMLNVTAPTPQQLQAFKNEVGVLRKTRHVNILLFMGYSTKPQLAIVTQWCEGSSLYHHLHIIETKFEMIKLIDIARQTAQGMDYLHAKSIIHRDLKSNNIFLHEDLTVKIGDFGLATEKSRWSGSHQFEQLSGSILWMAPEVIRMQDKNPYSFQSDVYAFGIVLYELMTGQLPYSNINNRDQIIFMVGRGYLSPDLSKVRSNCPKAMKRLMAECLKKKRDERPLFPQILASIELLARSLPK

Kit = target: T4, Kit (Homo sapiens, UniProt P10721); test: AlphaScreen kinase assay, Kit; conditions: read-out: IC50, activity toward kinase Kit
T4 construct: P1332.N6 BI PTP KIT M552-K948-X COD; His6 (N); made in house; host or cells: E. coli (PTP1B co-expressed)
T4 sequence (P10721 with tags, fused parts or gaps): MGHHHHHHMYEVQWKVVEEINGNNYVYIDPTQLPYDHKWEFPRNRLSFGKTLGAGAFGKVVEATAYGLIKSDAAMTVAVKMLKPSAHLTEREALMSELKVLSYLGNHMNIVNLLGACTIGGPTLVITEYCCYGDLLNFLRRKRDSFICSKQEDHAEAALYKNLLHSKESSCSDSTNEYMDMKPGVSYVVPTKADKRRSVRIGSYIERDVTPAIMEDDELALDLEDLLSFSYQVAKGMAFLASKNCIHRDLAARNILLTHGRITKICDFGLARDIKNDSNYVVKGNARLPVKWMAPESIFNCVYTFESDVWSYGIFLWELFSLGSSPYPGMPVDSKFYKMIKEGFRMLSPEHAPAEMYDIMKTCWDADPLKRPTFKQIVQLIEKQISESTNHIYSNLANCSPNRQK

Kdr = target: T5, Kdr (Homo sapiens, UniProt P35968); test: Z'-Lyte FRET kinase assay (Invitrogen), Kdr; conditions: read-out: IC50, activity toward kinase Kdr
T5 construct: purchased Invitrogen (assay run by Invitrogen)
T5 sequence (P35968 20-1356): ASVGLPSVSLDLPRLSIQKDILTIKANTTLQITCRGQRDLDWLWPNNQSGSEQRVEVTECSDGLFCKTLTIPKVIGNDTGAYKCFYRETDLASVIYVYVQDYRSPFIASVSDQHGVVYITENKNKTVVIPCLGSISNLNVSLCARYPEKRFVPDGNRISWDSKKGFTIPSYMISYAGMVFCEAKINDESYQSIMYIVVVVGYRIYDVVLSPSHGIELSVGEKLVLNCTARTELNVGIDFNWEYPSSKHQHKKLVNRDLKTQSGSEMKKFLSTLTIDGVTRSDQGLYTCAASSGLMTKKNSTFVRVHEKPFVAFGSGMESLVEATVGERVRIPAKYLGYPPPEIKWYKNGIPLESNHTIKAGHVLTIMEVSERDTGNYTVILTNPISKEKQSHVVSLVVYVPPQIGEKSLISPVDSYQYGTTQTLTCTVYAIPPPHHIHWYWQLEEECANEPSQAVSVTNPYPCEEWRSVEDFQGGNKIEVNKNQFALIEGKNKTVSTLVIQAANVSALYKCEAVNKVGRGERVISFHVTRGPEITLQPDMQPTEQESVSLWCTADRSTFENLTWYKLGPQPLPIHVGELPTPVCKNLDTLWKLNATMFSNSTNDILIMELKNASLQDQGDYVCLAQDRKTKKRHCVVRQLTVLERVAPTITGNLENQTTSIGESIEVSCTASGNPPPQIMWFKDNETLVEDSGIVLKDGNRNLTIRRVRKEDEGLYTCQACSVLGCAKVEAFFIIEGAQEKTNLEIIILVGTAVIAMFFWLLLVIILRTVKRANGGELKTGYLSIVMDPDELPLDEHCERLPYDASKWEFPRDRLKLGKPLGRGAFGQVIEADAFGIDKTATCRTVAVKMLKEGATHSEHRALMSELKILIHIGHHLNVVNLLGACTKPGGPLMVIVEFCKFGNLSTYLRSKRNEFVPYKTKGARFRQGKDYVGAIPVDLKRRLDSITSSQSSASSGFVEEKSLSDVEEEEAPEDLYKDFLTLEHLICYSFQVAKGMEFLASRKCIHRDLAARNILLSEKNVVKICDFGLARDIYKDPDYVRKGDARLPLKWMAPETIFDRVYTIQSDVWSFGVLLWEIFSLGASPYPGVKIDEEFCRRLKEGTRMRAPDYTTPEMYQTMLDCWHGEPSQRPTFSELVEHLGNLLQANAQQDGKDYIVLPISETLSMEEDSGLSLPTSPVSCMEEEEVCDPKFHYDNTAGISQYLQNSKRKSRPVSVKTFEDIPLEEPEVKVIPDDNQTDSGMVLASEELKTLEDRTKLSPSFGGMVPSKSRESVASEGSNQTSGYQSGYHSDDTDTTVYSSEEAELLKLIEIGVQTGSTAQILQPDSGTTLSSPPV

FGFR1 = target: T6, FGFR1 (Homo sapiens, UniProt P11362, C488A/C584S); test: AlphaScreen kinase assay, FGFR1; conditions: read-out: IC50, activity toward kinase FGFR
T6 construct: P1351.pET N6 BI-PTP FGFR A458-E765-X C488A, C584S; made in house; host or cells: E. coli (PTP1B co-expressed)
T6 sequence (P11362 458-765 C488A/C584S): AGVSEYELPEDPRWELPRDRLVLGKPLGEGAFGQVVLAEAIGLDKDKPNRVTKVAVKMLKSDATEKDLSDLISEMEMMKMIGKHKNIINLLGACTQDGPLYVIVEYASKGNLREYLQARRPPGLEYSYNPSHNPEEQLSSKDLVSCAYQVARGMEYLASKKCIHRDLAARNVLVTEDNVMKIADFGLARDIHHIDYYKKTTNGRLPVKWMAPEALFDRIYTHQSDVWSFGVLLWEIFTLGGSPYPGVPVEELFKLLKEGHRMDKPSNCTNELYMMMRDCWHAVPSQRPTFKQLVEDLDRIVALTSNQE

Fak = target: T7, Fak (Homo sapiens, UniProt Q05397); test: AlphaScreen kinase assay, Fak; conditions: read-out: IC50, activity toward kinase Fak
T7 construct: P1358.pFastBacHtb FAK S411-Q686-X; His6 with pFastBacHTb leader (TEV site) (N); made in house; host or cells: Sf9 (baculovirus)
T7 sequence (Q05397 411-686): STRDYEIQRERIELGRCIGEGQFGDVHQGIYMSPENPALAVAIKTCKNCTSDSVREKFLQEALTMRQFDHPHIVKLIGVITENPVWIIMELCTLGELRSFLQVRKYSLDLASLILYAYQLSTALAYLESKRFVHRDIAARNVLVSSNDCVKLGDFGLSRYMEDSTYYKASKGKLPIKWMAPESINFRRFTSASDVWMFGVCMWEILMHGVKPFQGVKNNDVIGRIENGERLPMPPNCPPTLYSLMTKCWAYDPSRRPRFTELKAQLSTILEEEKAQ

Stk6 = target: T8, Stk6 (Homo sapiens, UniProt O14965); test: Z'-Lyte FRET kinase assay (Invitrogen), Stk6; conditions: read-out: IC50, activity toward kinase Stk6
T8 construct: purchased Invitrogen (Carlsbad, Calif.), screening service
T8 sequence (O14965 1-403): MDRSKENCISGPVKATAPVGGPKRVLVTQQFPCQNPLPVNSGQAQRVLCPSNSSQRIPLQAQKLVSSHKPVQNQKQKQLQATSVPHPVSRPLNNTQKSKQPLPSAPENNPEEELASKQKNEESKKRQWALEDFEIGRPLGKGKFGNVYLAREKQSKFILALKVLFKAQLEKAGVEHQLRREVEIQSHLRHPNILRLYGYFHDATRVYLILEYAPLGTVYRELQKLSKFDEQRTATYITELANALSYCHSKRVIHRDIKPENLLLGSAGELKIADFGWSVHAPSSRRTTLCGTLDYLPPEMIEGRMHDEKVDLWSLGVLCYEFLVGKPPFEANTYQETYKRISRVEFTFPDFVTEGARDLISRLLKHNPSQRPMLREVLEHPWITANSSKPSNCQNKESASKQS

Jnk3 = target: T9, Jnk3 (Homo sapiens, UniProt P53779); test: AlphaScreen kinase assay, Jnk3; conditions: read-out: IC50, activity toward kinase Jnk3
T9 construct: purchased Upstate Biotechnology
T9 sequence (P53779 whole entry): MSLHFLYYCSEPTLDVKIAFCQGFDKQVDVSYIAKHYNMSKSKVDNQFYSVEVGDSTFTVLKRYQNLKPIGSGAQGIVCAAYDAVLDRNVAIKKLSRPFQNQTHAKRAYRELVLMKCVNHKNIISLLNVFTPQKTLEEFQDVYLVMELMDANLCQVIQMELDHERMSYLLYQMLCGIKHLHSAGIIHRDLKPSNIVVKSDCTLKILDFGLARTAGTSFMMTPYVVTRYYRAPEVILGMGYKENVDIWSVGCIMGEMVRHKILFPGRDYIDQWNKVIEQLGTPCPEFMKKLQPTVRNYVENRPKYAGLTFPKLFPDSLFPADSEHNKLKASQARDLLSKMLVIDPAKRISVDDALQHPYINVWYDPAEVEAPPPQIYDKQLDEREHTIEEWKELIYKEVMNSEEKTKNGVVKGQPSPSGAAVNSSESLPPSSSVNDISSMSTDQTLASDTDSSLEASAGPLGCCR

Compound	IC50 (Zap70) [µM]	also measured
Cc1cc(C(=O)c2c[nH]c3nccc(-c4cccc(/C=C/C(=O)O)c4)c23)no1 [Compound P-1000]	≤ 10	IC50 (Ret): ≤ 10 µM; IC50 (B-Raf V600E): ≤ 10 µM
Cc1cc(C)cc(Cc2c[nH]c3ncccc23)c1 [Compound P-0507]	≤ 10	IC50 (FGFR1): ≤ 10 µM
O=S(=O)(NCc1c[nH]c2ncccc12)c1ccc(-c2cccc(CO)c2)cc1 [Compound P-0193]	≤ 10	IC50 (Stk6): ≤ 10 µM
CS(=O)(=O)c1ccc(CNCc2[nH]c3ncccc3c2-c2cccc(CO)c2)cc1 [Compound P-0523]	≤ 10	
O=S(=O)(NCc1c[nH]c2ncccc12)c1ccc(O)cc1 [Compound P-0859]	≤ 10	
CC(C)c1ccc(Cc2c[nH]c3ncccc23)cn1 [Compound P-0379]	≤ 10	IC50 (Kdr): ≤ 10 µM; IC50 (FGFR1): ≤ 10 µM
Brc1c(CNCc2cccnc2)[nH]c2ncccc12 [Compound P-0875]	≤ 10	
Clc1ccc(/C=C\c2c[nH]c3ncccc23)cn1 [Compound P-0360]	≤ 10	
Fc1cc(F)cc(-c2ccnc3[nH]ccc23)c1 [Compound P-0296]	≤ 10	IC50 (Kdr): ≤ 10 µM
COc1ccc(OC)c(S(=O)(=O)NCc2c[nH]c3ncccc23)c1 [Compound P-0808]	≤ 10	
O=S(=O)(c1ccsc1)N1CCN(Cc2c[nH]c3ncccc23)CC1 [Compound P-1051]	≤ 10	
Clc1ccnc2[nH]ccc12 [Compound P-0342]	≤ 10	
COC(=O)c1ccc(CCc2c[nH]c3ncccc23)cc1 [Compound P-0586]	≤ 10	
c1cnc2[nH]c(CNCCc3ccncc3)cc2c1 [Compound P-0880]	≤ 10	
COc1ccc(S(=O)(=O)NCc2ccnc3[nH]ccc23)cc1 [Compound P-0724]	≤ 10	
O=C(c1cccc(F)c1)c1c[nH]c2ncc(Br)cc12 [Compound P-0865]	≤ 10	IC50 (Kit): ≤ 10 µM; IC50 (Ret): ≤ 10 µM; IC50 (FGFR1): ≤ 10 µM
O=C(c1cccc(F)c1)c1c[nH]c2ncc(-c3ccsc3)cc12 [Compound P-0378]	≤ 10	IC50 (Kit): ≤ 10 µM; IC50 (Ret): ≤ 10 µM; IC50 (Jnk3): ≤ 10 µM
Cc1[nH]c2ncccc2c1-c1ccc(F)c(F)c1 [Compound P-0929]	≤ 10	
COc1cccc(C(=O)c2c[nH]c3ncc(-c4cccnc4)cc23)c1 [Compound P-0218]	≤ 10	IC50 (Jnk3): ≤ 10 µM

Now from value to molecule, other results behind:

IC50 (Zap70) [µM]	Compound	also measured
≤ 10	Fc1ccccc1-c1c[nH]c2ncccc12 [Compound P-0195]	IC50 (Kit): ≤ 10 µM; IC50 (Kdr): ≤ 10 µM
≤ 10	NC(=O)c1ccc(-c2cnc3[nH]cc(C(=O)c4ccc5nsnc5c4)c3c2)cc1 [Compound P-1081]	IC50 (Ret): ≤ 10 µM
≤ 10	NC(=O)c1ccc(-c2cnc3[nH]cc(C(=O)c4ccc(Cl)cc4)c3c2)cc1 [Compound P-1073]	IC50 (Ret): ≤ 10 µM
≤ 10	COC(c1ccc(Br)cc1)c1c[nH]c2ncc(-c3cccc(S(C)(=O)=O)c3)cc12 (stereo not drawn) [Compound P-0434]	IC50 (Ret): ≤ 10 µM; IC50 (B-Raf V600E): ≤ 10 µM
≤ 10	CN1CCN(Cc2ccc(C(=O)Nc3ccc(Cc4c[nH]c5ncccc45)cc3)cc2)CC1 [Compound P-0795]	IC50 (Ret): ≤ 10 µM; IC50 (Fak): ≤ 10 µM
≤ 10	COc1cccc(-c2ccc(S(=O)(=O)NCc3c[nH]c4ncccc34)s2)c1 [Compound P-0676]	
≤ 10	CS(=O)(=O)Nc1cccc(-c2cnc3[nH]cc(C(=O)c4ccc5nsnc5c4)c3c2)c1 [Compound P-1089]	IC50 (Ret): ≤ 10 µM
≤ 10	O=Cc1ccc(-c2ccnc3[nH]ccc23)cc1 [Compound P-0996]	
≤ 10	O=S(=O)(NCc1c[nH]c2ncccc12)c1cccc(-c2cccc(CO)c2)c1 [Compound P-0484]	
≤ 10	O=Cc1c[nH]c2nccc(Cl)c12 [Compound P-0649]	
≤ 10	CCOC(=O)C(Cc1c[nH]c2ncccc12)C(=O)OCC [Compound P-0642]	
≤ 10	O=C(CCc1c[nH]c2ncccc12)NCc1cccnc1 [Compound P-0456]	
≤ 10	Cc1[nH]c2ncccc2c1-c1ccc(C(C)(C)C)cc1 [Compound P-0953]	
≤ 10	COc1cccc(C(=O)c2c[nH]c3ncc(-c4ccc(C(N)=O)cc4)cc23)c1 [Compound P-1005]	IC50 (Ret): ≤ 10 µM; IC50 (Jnk3): ≤ 10 µM
≤ 10	O=C(c1ccccc1)c1c[nH]c2c1cc(Br)c[n+]2[O-] [Compound P-0275]	
≤ 10	O=C(O)/C=C/c1cccc(-c2cnc3[nH]cc(C(=O)c4ccc5nsnc5c4)c3c2)c1 [Compound P-1019]	IC50 (Ret): ≤ 10 µM
≤ 10	O=C(c1cccc(O)c1)c1ccc(-c2cnc3[nH]ccc3c2)s1 [Compound P-0755]	IC50 (Kit): ≤ 10 µM; IC50 (Jnk3): ≤ 10 µM
≤ 10	CCCCc1ccc(S(=O)(=O)NCc2c[nH]c3ncccc23)cc1 [Compound P-1119]	IC50 (Ret): ≤ 10 µM
≤ 10	COCc1c[nH]c2ncccc12 [Compound P-1197]	
≤ 10	Cc1[nH]c2ncccc2c1-c1cccs1 [Compound P-0249]	IC50 (Stk6): ≤ 10 µM
≤ 10	O=C(c1cccc(Cl)c1Cl)c1c[nH]c2ncc(-c3ccsc3)cc12 [Compound P-0698]	IC50 (Ret): ≤ 10 µM; IC50 (FGFR1): ≤ 10 µM; IC50 (B-Raf V600E): ≤ 10 µM; IC50 (Jnk3): ≤ 10 µM
≤ 10	N#Cc1ccc(/C=C\c2c[nH]c3ncccc23)cc1 [Compound P-0500]	
≤ 10	COCCN1CCN(Cc2[nH]c3ncccc3c2-c2ccc(C(N)=O)cc2)CC1 [Compound P-0856]	
≤ 10	COc1ccc(F)cc1Cc1c[nH]c2ncccc12 [Compound P-0348]	IC50 (Stk6): ≤ 10 µM
